These are literature values, as cited in patent US7414057B2, “Piperazine urea derivatives as melanocortin-4 receptor agonists” (Merck & Co., Inc., priority 2002, dated 2008).

The conditions of this series: injected intramuscularly or subcutaneously to males with psychogenic erectile dysfunction.

For “Ac-Nle-c[Asp-His-DPhe-Arg-Trp-Lys]-NH2 [melanotan-II]”, the response rate is on record as 75%.
